Assays:
[1] = target: Serine/threonine-protein kinase Nek11 (Homo sapiens) (UniProt Q8NG66); test: Inhibition of wild-type human partial length NEK11 (M1 to E313 residues) expressed in mammalian expression system at 1 uM by Kinomescan method relative to control
[2] = AUC (infinity) in po dosed Sprague-Dawley rat using amorphous solid form of compound; format: ADME, organism-based; design: route oral, time infinity; details: in vivo
[3] = target: Myosin light chain kinase, smooth muscle (Homo sapiens) (UniProt Q15746); test: Inhibition of wild-type human full length MYLK (M854 to E1845 residues) expressed in mammalian expression system at 1 uM by Kinomescan method relative to control
[4] = tested on: Tyrosine-protein kinase ABL1 (Homo sapiens), P00519 [Y253F]; test: Inhibition of human phosphorylated ABL1 Y253F mutant (S229 to K512 residues) expressed in mammalian expression system at 1 uM by Kinomescan method relative to control
[5] = target: Casein kinase I isoform alpha-like (Homo sapiens) (UniProt Q8N752); test: Inhibition of wild-type human full length CSNK1A1L (M1 to N337 residues) expressed in bacterial expression system at 1 uM by Kinomescan method relative to control
Sequence of Casein kinase I isoform alpha-like (Homo sapiens) (Q8N752 whole entry, the tested form may be a part, canonical isoform): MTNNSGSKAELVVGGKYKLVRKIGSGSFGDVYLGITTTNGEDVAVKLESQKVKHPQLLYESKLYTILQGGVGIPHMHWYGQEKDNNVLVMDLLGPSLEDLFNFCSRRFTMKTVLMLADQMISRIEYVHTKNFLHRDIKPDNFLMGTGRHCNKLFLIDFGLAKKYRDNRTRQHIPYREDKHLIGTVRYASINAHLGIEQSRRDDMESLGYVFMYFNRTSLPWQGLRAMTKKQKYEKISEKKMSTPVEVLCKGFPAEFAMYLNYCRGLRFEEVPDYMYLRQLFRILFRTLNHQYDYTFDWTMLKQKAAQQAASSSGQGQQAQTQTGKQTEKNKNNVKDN

[6] = target: Cyclin-dependent kinase 14 (Homo sapiens) (UniProt O94921); test: Inhibition of wild-type human full length PFTK1 (M1 to H451 residues) expressed in bacterial expression system at 1 uM by Kinomescan method relative to control
[7] = target: Death-associated protein kinase 2 (Homo sapiens) (UniProt Q9UIK4); test: Inhibition of wild-type human full length DAPK2 (M1 to S370 residues) expressed in bacterial expression system at 1 uM by Kinomescan method relative to control
[8] = target: Phosphatidylinositol 4,5-bisphosphate 3-kinase catalytic subunit gamma isoform (Homo sapiens) (UniProt P48736); test: Inhibition of wild-type human partial length PIK3CG (S144 to A1102 residues) expressed in mammalian expression system at 1 uM by Kinomescan method relative to control
Sequence of Phosphatidylinositol 4,5-bisphosphate 3-kinase catalytic subunit gamma isoform (Homo sapiens) (P48736 whole entry, looked up, the tested form may be a part, canonical isoform): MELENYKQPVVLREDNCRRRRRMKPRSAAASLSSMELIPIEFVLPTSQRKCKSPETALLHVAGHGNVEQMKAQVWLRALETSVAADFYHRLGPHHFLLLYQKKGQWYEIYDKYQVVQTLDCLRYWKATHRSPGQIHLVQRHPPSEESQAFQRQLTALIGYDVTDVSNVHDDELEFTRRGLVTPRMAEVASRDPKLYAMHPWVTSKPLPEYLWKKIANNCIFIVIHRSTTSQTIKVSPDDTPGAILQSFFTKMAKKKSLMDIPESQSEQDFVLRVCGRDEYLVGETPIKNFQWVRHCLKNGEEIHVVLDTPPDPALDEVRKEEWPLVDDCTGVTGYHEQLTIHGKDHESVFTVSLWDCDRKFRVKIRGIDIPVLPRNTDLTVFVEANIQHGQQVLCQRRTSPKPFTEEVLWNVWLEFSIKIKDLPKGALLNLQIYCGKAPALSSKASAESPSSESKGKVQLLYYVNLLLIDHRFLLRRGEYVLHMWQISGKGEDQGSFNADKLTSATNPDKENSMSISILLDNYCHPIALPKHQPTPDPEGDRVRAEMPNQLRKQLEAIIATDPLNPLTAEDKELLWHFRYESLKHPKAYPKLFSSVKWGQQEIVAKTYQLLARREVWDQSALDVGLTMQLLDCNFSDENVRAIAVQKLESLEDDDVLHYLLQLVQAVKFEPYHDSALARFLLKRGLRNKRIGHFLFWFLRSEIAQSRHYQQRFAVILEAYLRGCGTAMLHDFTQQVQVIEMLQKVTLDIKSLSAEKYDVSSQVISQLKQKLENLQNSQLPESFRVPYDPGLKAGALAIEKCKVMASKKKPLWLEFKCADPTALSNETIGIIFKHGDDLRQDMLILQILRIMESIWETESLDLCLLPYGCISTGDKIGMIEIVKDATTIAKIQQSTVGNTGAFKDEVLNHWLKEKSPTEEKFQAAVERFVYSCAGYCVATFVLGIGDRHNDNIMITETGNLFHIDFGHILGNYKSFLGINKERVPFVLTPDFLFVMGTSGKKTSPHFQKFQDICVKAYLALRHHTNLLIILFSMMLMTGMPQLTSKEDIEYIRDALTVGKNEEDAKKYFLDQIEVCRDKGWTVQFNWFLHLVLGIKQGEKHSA

[9] = target: Calcium/calmodulin-dependent protein kinase type II subunit alpha (Homo sapiens) (UniProt Q9UQM7); test: Inhibition of wild-type human partial length CAMK2A (M1 to K328 residues) expressed in bacterial expression system at 1 uM by Kinomescan method relative to control
[10] = target: Serine/threonine-protein kinase PAK 5 (Homo sapiens) (UniProt Q9P286); test: Inhibition of wild-type human partial length PAK7 (Y400 to H719 residues) expressed in bacterial expression system at 1 uM by Kinomescan method relative to control
Sequence of Serine/threonine-protein kinase PAK 5 (Homo sapiens) (Q9P286 whole entry, looked up, the tested form may be a part): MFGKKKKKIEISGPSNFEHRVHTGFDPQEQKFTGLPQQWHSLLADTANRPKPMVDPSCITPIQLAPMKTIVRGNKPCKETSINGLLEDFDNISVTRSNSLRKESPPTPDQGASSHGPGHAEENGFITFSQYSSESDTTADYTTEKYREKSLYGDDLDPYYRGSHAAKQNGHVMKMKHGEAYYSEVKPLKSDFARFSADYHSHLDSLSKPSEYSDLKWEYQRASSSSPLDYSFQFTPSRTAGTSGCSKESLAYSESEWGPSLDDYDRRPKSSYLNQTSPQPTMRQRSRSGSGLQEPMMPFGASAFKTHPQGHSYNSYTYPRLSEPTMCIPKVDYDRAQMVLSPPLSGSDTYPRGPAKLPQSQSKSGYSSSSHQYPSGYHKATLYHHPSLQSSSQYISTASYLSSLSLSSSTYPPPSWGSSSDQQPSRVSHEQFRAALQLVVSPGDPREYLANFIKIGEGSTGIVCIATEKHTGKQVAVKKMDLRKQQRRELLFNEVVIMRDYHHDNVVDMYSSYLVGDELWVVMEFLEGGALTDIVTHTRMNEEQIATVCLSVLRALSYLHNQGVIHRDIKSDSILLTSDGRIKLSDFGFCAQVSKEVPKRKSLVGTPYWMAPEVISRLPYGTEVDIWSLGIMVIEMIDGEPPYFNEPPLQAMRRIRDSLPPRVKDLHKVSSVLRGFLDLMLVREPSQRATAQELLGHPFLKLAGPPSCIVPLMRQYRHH

[11] = target: Tyrosine-protein kinase Fes/Fps (Homo sapiens) (UniProt P07332); test: Inhibition of wild-type human partial length FES (I527 to R822 residues) expressed in bacterial expression system at 1 uM by Kinomescan method relative to control
[12] = target: Cyclin-dependent kinase 5 (Homo sapiens) (UniProt Q00535); test: Inhibition of wild-type human full length CDK5 (M1 to P292 residues) expressed in bacterial expression system at 1 uM by Kinomescan method relative to control
[13] = target: Serine/threonine-protein kinase 4 (Homo sapiens) (UniProt Q13043); test: Inhibition of wild-type human full length MST1 (M1 to F487 residues) expressed in bacterial expression system at 1 uM by Kinomescan method relative to control
Sequence of Serine/threonine-protein kinase 4 (Homo sapiens) (Q13043 whole entry, the tested form may be a part): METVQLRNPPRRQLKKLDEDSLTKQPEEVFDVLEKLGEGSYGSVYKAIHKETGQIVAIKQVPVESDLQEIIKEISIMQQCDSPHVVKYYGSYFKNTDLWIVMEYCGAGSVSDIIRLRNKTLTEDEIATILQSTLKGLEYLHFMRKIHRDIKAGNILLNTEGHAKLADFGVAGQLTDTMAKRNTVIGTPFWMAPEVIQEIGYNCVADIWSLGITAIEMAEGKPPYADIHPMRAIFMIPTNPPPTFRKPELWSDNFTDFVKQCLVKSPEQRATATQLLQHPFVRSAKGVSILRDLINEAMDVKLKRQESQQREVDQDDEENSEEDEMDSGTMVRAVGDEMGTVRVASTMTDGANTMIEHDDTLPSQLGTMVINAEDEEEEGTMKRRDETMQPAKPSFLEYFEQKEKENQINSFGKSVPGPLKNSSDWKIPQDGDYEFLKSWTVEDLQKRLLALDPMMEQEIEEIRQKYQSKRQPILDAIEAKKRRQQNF

[14] = target: Aurora kinase A (Homo sapiens) (UniProt O14965); test: Inhibition of wild-type human partial length AURKA (E122 to K401 residues) expressed in mammalian expression system at 10 uM by Kinomescan method relative to control
Sequence of Aurora kinase A (Homo sapiens) (O14965 whole entry, the tested form may be a part): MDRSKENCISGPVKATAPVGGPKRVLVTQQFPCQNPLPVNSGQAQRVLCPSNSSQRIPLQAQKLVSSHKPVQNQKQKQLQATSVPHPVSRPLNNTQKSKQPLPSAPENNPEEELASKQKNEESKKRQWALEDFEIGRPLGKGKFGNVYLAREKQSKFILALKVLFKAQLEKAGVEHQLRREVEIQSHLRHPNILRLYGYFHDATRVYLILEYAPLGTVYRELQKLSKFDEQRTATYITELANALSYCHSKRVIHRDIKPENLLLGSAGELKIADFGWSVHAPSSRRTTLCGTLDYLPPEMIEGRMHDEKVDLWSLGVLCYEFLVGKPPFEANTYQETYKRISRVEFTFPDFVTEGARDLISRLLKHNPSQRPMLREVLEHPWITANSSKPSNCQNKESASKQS

[15] = target: Ribosomal protein S6 kinase alpha-1 (Homo sapiens) (UniProt Q15418); test: Inhibition of wild-type human partial length N-terminal RSK1 Kinase domain 1 (M1 to E388 residues) expressed in bacterial expression system at 10 uM by Kinomescan method relative to control
Sequence of Ribosomal protein S6 kinase alpha-1 (Homo sapiens) (Q15418 whole entry, the tested form may be a part): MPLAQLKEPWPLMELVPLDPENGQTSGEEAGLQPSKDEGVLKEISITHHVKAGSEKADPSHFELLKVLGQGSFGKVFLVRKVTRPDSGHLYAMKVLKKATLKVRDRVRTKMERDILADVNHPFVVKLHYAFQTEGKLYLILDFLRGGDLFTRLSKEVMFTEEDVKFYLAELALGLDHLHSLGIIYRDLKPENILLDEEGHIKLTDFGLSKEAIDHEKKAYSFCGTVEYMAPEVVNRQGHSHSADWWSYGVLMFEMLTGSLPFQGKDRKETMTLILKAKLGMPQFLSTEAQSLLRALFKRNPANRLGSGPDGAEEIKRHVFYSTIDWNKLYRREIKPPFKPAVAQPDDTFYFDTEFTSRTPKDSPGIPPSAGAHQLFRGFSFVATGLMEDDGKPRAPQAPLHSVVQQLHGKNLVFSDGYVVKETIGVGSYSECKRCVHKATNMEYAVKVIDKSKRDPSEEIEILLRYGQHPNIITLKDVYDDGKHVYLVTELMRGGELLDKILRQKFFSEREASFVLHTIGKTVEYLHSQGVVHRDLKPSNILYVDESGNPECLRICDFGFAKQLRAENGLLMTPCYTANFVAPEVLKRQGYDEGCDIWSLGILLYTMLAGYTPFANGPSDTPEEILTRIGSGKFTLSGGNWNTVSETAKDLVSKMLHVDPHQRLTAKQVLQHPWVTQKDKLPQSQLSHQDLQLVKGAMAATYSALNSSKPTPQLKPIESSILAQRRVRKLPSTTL

[16] = target: Serine/threonine-protein kinase STK11 (Homo sapiens) (UniProt Q15831); test: Inhibition of wild-type human full length LKB1 (M1 to Q433 residues) expressed in bacterial expression system at 10 uM by Kinomescan method relative to control
[17] = target: Serine/threonine-protein kinase BRSK2 (Homo sapiens) (UniProt Q8IWQ3); test: Inhibition of wild-type human full length BRSK2 (M1 to L674 residues) expressed in bacterial expression system at 10 uM by Kinomescan method relative to control
[18] = target: Mitogen-activated protein kinase kinase kinase 7 (Homo sapiens) (UniProt O43318); test: Inhibition of wild-type human partial length TAK1 (M1 to Q303 residues) expressed in mammalian expression system at 10 uM by Kinomescan method relative to control
[19] = target: Mitogen-activated protein kinase 13 (Homo sapiens) (UniProt O15264); test: Inhibition of wild-type human full length p38-delta (M1 to L365 residues) expressed in bacterial expression system at 10 uM by Kinomescan method relative to control
[20] = target: Ribosomal protein S6 kinase alpha-5 (Homo sapiens) (UniProt O75582); test: Inhibition of wild-type human partial length N-terminal RPS6KA5 kinase domain 1 expressed in bacterial expression system at 10 uM by Kinomescan method relative to control
[21] = target: RAF proto-oncogene serine/threonine-protein kinase (Homo sapiens) (UniProt P04049); test: Inhibition of wild-type human partial length RAF1 (I330 to T640 residues) expressed in bacterial expression system at 10 uM by Kinomescan method relative to control
[22] = target: Testis-specific serine/threonine-protein kinase 3 (Homo sapiens) (UniProt Q96PN8); test: Inhibition of wild-type human full length TSSK3 (M1 to T268 residues) expressed in mammalian expression system at 10 uM by Kinomescan method relative to control
[23] = target: Casein kinase II subunit alpha (Homo sapiens) (UniProt P68400); test: Inhibition of wild-type human full length CSNK2A1 (M1 to Q391 residues) expressed in mammalian expression system at 10 uM by Kinomescan method relative to control
[24] = tested on: Serine/threonine-protein kinase B-raf (Homo sapiens), P15056 [V600E]; test: Inhibition of human partial length BRAF V600E mutant (S429 to E741 residues) expressed in mammalian expression system at 10 uM by Kinomescan method relative to control
[25] = target: Transient receptor potential cation channel subfamily M member 6 (Homo sapiens) (UniProt Q9BX84); test: Inhibition of wild-type human partial length TRPM6 (Q1723 to I1998 residues) expressed in mammalian expression system at 10 uM by Kinomescan method relative to control
[26] = target: Serine/threonine-protein kinase Nek1 (Homo sapiens) (UniProt Q96PY6); test: Inhibition of wild-type human partial length NEK1 (M1 to K278 residues) expressed in bacterial expression system at 10 uM by Kinomescan method relative to control
[27] = target: Interleukin-1 receptor-associated kinase 3 (Homo sapiens) (UniProt Q9Y616); test: Inhibition of wild-type human partial length IRAK3 (V147 to E596 residues) expressed in bacterial expression system at 10 uM by Kinomescan method relative to control
Sequence of Interleukin-1 receptor-associated kinase 3 (Homo sapiens) (Q9Y616 whole entry, the tested form may be a part): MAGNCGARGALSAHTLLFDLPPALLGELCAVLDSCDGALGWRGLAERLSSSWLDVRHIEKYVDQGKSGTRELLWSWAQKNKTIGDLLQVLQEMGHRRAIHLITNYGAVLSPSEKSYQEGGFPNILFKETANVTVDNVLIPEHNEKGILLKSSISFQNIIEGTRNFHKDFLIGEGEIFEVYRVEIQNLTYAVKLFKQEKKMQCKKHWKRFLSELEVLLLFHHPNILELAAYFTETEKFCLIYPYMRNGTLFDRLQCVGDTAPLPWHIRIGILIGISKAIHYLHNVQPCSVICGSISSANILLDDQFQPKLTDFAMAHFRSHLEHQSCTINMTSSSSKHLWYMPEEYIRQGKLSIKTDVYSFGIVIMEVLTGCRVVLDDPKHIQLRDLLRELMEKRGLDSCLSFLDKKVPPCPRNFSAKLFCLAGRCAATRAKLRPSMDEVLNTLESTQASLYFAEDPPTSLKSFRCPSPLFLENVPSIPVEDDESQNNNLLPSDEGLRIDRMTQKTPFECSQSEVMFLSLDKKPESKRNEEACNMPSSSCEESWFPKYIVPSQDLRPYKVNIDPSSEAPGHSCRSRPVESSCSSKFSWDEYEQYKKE

Sequence of Serine/threonine-protein kinase Nek11 (Homo sapiens) (Q8NG66 whole entry, the tested form may be a part): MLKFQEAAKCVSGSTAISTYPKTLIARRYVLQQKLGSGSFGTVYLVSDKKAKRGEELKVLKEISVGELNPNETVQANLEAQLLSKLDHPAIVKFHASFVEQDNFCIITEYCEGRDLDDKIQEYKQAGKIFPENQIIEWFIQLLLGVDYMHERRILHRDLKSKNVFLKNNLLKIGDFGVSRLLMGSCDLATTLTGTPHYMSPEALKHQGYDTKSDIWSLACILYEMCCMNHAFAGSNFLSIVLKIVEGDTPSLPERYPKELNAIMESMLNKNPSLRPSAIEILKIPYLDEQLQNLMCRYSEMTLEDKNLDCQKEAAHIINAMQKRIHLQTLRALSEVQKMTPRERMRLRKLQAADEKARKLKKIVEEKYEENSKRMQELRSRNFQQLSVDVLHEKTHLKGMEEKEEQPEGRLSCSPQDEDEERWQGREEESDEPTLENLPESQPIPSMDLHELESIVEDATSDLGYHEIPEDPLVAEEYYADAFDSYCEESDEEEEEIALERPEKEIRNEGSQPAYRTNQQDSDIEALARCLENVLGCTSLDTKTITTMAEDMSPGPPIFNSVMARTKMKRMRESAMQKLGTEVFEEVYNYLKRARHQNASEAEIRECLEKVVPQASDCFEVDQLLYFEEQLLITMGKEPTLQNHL

## O=C(Nc1cccc([C@@H]2CN(c3ncnc4[nH]ccc34)CCN2CCO)c1)Nc1c(F)cccc1N1CCCC1
[1]
  inhibition: 86%
[2]
  AUC(0-inf): 1890 ng·h/mL
[3]
  inhibition: 100%
[4]
  inhibition: 100%
[5]
  inhibition: 100%
[6]
  inhibition: 89%
[7]
  inhibition: 6.1%
[8]
  inhibition: 84%
[9]
  inhibition: 95%
[10]
  inhibition: 98%
[11]
  inhibition: 100%
[12]
  inhibition: 68%
[13]
  inhibition: 78%

## O=C(Nc1cccc([C@H]2CCCN(c3ncnc4[nH]ccc34)C2)c1)Nc1ccccc1N1CCCC1
[14]
  inhibition: 0.8%
[15]
  inhibition: 42%
[16]
  inhibition: 25%
[17]
  inhibition: 92%
[18]
  inhibition: 24%
[19]
  inhibition: 100%
[20]
  inhibition: 100%
[21]
  inhibition: 86%
[22]
  inhibition: 85%
[23]
  inhibition: 67%
[24]
  inhibition: 16%
[25]
  inhibition: 69%
[26]
  inhibition: 100%
[27]
  inhibition: 92%

— ChEMBL document CHEMBL4387741, “Optimization of novel reversible Bruton's tyrosine kinase inhibitors identified using Tethering-fragment-based screens” (Bioorg Med Chem, 2019)
